Source: article PMC7656694 (Biotechnology for Biofuels, 2020)
Changes are numbered by the printed parent chain. In names and notes the source's numbering stands.

How the values were obtained:
EcBdh = biological target: T1, EcBdh (Enterobacter cloacae, UniProt G8FSA9); assay: NADH consumption at […] nm; assay type: biochemical; conditions: 0.25 mM NADH, 25 mM acetoin, 100 mM potassium phosphate pH 7.0; racemic acetoin
T1 construct: gene dar; full length, N-terminal His6 and TEV site (cleavage not described), gene amplified from Z. mobilis strain BC-11B, expressed in Zymomonas mobilis 9C, purified

SmBdh = biological target: T2, SmBdh (Serratia marcescens, UniProt H9XP47); assay: X-ray crystal structure, […] A; assay type: binding
T2 construct: gene budC; full length, N-terminal His6 and TEV site after start codon (cleavage not described), codon-optimized, expressed in Zymomonas mobilis 9C; tetramer, site completed by Gln247 of the symmetry-related chain
T2 sequence (H9XP47 2-251): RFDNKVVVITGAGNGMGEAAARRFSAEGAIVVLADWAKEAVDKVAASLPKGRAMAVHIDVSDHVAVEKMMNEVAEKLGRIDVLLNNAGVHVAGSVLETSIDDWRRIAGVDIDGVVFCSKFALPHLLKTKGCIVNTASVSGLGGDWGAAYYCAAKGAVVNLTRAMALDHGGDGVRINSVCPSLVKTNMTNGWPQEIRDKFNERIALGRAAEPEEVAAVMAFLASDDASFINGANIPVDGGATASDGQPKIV

crystal structure = biological target: the molecule itself; assay: crystal structure

T1 sequence (G8FSA9 1-256): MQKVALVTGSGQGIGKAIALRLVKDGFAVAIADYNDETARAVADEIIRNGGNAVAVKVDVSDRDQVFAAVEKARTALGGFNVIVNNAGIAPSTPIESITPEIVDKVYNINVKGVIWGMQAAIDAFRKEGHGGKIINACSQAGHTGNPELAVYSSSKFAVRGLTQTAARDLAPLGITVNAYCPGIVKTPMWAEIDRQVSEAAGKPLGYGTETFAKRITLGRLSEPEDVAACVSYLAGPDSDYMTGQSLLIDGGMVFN

CC(=O)C(C)O (racemic) [acetoin]
NADH consumption at 340 nm (EcBdh): Proteins were expressed in the Z. mobilis 9C strain, purified to homogeneity

CC(=O)[C@@H](C)O [(3R)-acetoin]
X-ray crystal structure, 2.0 A (SmBdh; NAD+ bound, active site of closed molecule A, modelled together with (3S)-acetoin from racemate): both (3R)- and (3S)-acetoin molecules bound in the pocket

CC(=O)[C@H](C)O [(3S)-acetoin]
X-ray crystal structure, 2.0 A (SmBdh; NAD+ bound, active site of closed molecule A, modelled together with (3R)-acetoin from racemate): both (3R)- and (3S)-acetoin molecules bound in the pocket

Nc1ncnc2c1ncn2[C@@H]1O[C@H](COP(=O)(O)OP(=O)(O)O)[C@@H](O)[C@H]1O [ADP]
X-ray crystal structure, 2.0 A (SmBdh; cofactor site of open molecule B, only NAD+ was added in crystallization): the corresponding space is occupied by only adenine diphosphate

NC(=O)C1=CN([C@@H]2O[C@H](COP(=O)(O)OP(=O)(O)OC[C@H]3O[C@@H](n4cnc5c(N)ncnc54)[C@H](O)[C@@H]3O)[C@@H](O)[C@H]2O)C=CC1 [NADH]
NADH consumption at 340 nm (EcBdh): subjected to activity analysis using the NADH consumption assay

NC(=O)c1ccc[n+]([C@@H]2O[C@H](COP(=O)(O)OP(=O)(O)OC[C@H]3O[C@@H](n4cnc5c(N)ncnc54)[C@H](O)[C@@H]3O)[C@@H](O)[C@H]2O)c1 [NAD^+]
X-ray crystal structure, 2.0 A (SmBdh; cofactor site of closed molecule A, with acetoin): locate NAD ^+ cofactor molecule and acetoin molecules in protein molecule A

B1: Serratia marcescens 2,3-butanediol dehydrogenase, wild type (N-term SmBdh) (enzyme, UniProt H9XP47 1-251, looked up)
chain: MRFDNKVVVITGAGNGMGEAAARRFSAEGAIVVLADWAKEAVDKVAASLPKGRAMAVHIDVSDHVAVEKMMNEVAEKLGRIDVLLNNAGVHVAGSVLETSIDDWRRIAGVDIDGVVFCSKFALPHLLKTKGCIVNTASVSGLGGDWGAAYYCAAKGAVVNLTRAMALDHGGDGVRINSVCPSLVKTNMTNGWPQEIRDKFNERIALGRAAEPEEVAAVMAFLASDDASFINGANIPVDGGATASDGQPKIV
notes: tag and TEV site placed immediately after the start codon; also called WT SmBdh; WT SmBDH; source: Z. mobilis strain 9C, purified (HisTrap, size exclusion chromatography)
stoichiometry N (crystal structure): 4

B2: Serratia marcescens 2,3-butanediol dehydrogenase Q247A + V139Q double mutant (enzyme)
chain: B1 chain with V139Q, Q247A
notes: also called SmBdh Q247A + V139Q; Q247A + V139Q SmBdh; source: Z. mobilis strain 9C, purified (HisTrap, size exclusion chromatography)
binding result (crystal structure): binds

B3: Serratia marcescens 2,3-butanediol dehydrogenase Q247A mutant (enzyme)
chain: B1 chain with Q247A
notes: also called SmBdh Q247A; Q247A SmBdh; source: Z. mobilis strain 9C, purified (HisTrap, size exclusion chromatography)
binding result (crystal structure): binds
